Active and inactive are the calls of the source.
How the values were obtained:
[1] = cytotoxicity toward NIH3T3 fibroblasts, dose response, counter-screen, cell-based, ATP luminescence, mouse fibroblasts (AID 2010); assay type: functional;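 note: cells exposed to compound for about 90 hours before reading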
[2] = inhibitors of intracellular T. cruzi replication, confirmation, NIH3T3 host cells, beta-gal luminescence (AID 2044); assay type: functional, cell-based;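 note: intracellular parasites grown in NIH/3T3 mouse fibroblasts as host cells; luminescent beta-galactosidase reporter signal from transgenic T. cruzi replicating inside host cells; inhibitors lower the luminescence signal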
Cytochrome P450 2C9 = Cytochrome P450 2C9 (Homo sapiens, UniProt P11712)
Sequence of Cytochrome P450 2C9 (P11712 whole entry): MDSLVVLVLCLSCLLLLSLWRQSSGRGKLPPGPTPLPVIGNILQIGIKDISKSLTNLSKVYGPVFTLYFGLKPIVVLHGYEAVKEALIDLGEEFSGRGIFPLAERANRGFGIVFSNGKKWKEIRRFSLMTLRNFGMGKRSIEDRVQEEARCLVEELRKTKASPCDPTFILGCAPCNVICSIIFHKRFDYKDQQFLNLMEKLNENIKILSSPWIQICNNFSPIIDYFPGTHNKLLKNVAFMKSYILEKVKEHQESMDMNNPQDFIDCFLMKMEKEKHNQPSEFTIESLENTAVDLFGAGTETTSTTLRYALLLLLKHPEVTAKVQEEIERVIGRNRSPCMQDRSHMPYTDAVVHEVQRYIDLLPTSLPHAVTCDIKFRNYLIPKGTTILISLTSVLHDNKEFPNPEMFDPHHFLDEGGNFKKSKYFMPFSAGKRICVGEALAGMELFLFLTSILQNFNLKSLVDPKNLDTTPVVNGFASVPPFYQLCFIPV

Cytochrome P450 3A4 = Cytochrome P450 3A4 (Homo sapiens, UniProt P08684);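 note: CYP3A4 tested as one member of a cytochrome P450 panel screen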
Sequence of Cytochrome P450 3A4 (P08684 whole entry): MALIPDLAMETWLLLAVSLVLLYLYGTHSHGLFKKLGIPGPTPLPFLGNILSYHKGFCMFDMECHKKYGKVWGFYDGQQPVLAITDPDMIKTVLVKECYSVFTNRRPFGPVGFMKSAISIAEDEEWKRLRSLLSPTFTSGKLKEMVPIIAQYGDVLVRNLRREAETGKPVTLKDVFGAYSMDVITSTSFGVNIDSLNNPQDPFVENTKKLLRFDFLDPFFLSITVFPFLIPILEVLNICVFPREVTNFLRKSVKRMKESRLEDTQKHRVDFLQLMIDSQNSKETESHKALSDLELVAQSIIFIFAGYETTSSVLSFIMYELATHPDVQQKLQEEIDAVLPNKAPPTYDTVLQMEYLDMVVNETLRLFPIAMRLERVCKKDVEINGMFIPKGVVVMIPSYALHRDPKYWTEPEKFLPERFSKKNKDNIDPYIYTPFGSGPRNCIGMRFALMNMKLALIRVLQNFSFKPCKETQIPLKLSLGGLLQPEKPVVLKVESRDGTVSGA

Cytochrome P450 2C19 = Cytochrome P450 2C19 (Homo sapiens, UniProt P33261); assay: Cytochrome panel assay with activity outcomes. Panel member name: p450-cyp2c19 Compounds with AC50 equal or less than 10 uM are considered active; assay type: functional; details: read-out: AC50
Sequence of Cytochrome P450 2C19 (P33261 whole entry): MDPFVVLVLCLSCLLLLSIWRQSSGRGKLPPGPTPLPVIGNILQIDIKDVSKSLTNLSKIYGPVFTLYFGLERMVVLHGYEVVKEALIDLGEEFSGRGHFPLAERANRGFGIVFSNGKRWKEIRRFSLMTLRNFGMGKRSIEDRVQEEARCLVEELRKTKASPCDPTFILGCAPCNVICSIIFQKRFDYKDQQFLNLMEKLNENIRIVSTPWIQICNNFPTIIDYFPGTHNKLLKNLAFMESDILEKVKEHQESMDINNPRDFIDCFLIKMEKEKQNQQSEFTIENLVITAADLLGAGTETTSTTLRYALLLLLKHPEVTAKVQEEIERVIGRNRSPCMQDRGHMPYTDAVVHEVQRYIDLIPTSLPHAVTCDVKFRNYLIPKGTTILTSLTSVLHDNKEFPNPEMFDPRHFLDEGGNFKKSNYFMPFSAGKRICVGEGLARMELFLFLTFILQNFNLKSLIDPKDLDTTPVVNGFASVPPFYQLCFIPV

[3] = NIH-3T3 fibroblast cytotoxicity, dose response, cytotoxicity control, cell-based, fluorescence, Alamar Blue, secondary assay (AID 2327); assay type: functional;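 note: NIH-3T3 mouse fibroblasts cultured with fluconazole at 8 µg/mL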
[4] = C. albicans growth with fluconazole, confirmation, fluorescence, retest (AID 2467); assay type: functional, cell-based
Cytochrome P450 1A2 = molecular target: T1, Cytochrome P450 1A2 (Homo sapiens, UniProt P05177);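 note: PubChem cytochrome P450 panel assay, CYP1A2 panel member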
T1 sequence (P05177 whole entry): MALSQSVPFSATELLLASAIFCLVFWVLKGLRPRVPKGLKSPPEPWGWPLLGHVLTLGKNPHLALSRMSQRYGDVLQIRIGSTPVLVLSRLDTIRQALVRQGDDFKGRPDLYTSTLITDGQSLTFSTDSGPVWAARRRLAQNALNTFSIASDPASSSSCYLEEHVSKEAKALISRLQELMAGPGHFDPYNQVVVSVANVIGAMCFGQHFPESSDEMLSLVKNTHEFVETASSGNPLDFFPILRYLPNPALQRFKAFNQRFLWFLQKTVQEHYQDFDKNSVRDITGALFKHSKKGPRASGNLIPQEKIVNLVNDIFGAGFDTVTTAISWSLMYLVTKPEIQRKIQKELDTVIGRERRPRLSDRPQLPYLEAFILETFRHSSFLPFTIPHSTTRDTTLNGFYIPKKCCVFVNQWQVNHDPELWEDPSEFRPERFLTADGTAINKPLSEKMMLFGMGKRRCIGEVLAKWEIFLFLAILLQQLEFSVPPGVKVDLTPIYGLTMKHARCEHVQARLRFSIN

[5] = molecular target: T2, Corticotropin-releasing factor receptor 2/Corticotropin-releasing factor-binding protein (Homo sapiens, UniProt P24387+Q13324); assay: activators of CRF receptor 2 with binding protein – uHTS hits, confirmation (AID 602473); assay type: functional; details: read-out: EC50_Mean
T2 sequence (Q13324 whole entry): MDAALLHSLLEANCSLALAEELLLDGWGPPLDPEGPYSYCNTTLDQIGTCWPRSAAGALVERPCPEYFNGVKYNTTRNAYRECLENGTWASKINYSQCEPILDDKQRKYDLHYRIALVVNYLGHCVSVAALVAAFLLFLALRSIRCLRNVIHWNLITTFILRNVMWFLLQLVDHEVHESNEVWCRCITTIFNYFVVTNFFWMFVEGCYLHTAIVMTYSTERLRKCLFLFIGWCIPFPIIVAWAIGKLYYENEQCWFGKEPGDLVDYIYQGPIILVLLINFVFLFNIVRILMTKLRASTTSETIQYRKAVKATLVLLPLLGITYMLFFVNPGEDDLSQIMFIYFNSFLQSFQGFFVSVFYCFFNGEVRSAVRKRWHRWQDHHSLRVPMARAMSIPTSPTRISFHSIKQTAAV
T2 sequence (P24387 whole entry): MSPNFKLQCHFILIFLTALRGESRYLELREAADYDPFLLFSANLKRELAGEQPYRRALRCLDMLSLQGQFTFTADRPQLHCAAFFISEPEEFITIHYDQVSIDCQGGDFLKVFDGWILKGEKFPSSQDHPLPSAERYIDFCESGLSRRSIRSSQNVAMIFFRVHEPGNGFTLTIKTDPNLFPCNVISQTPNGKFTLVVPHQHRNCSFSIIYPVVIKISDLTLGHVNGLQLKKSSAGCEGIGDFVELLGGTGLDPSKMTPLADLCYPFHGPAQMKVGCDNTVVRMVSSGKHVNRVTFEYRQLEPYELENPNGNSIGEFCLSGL

Row | SMILES | EC50 [1] | EC50 [2] | further results
1 | COC(=O)c1[nH]c2ccccc2c1NC(=O)CN1CCCc2ccccc21 | > 60 µM (not active) | 0.89 µM (active) | –
2 | CC(C)CN(C(=O)c1cc([N+](=O)[O-])cc([N+](=O)[O-])c1)C1CCS(=O)(=O)C1 (centres undefined) | > 30 µM (not active) | 1.31 µM (active) | –
3 | CC(C)(Oc1ccc([C@@H]2CC2(Cl)Cl)cc1)C(=O)O | – | – | AC50 (Cytochrome P450 2C9): 31.6 µM (inconclusive)
4 | Cc1c(C(=O)Nc2cccc(Cl)c2)c2ccccn2c1CCc1ccncc1 | > 30 µM (not active) | 1.19 µM (active) | –
5 | COc1ccc(CN2CCN(Cc3nc4ccccc4s3)CC2CCO)c(C)c1C (centres undefined) | > 60 µM (inconclusive) | 0.132 µM (active) | –
6 | Cc1ccc(S(=O)(=O)n2ccc(-c3cccc(OCc4c(F)cccc4Cl)c3)n2)cc1 | – | – | AC50 (Cytochrome P450 3A4): 7.94 µM (inconclusive)
7 | Cc1nn(Cc2ccc(Cl)cc2)c(C)c1NC(=O)CCCn1nc([N+](=O)[O-])c(Cl)c1C | > 30 µM (not active) | 0.318 µM (active) | –
8 | Cc1cccc(OCC(=O)N2CCC(N3CCCCCC3)CC2)c1 | – | – | AC50 (Cytochrome P450 2C19): 39.8 µM (inconclusive)
9 | O=C(CSc1nc(=O)n2ccccc2n1)N1N=C(c2cccs2)CC1c1ccc(F)cc1 (centres undefined) | > 60 µM (not active) | 1.51 µM (active) | –
10 | COCC(=O)N1CCC2(CC1)CCN(c1cccc(-c3ccccc3)c1)CC2 | – | – | AC50 (Cytochrome P450 2C19): 39.8 µM (inconclusive)
11 | C/C(O)=C(/C#N)C(=O)Nc1cc(Br)ccc1Br | – | – | AC50 (Cytochrome P450 3A4): 15.8 µM (inconclusive)
12 | COCCCn1c(SCc2ccccc2)nc2cc(OC)c(OC)cc2c1=N | 11.5 µM (active) | 1.69 µM (active) | –
13 | CN1CCN(S(=O)(=O)c2ccc3ncc(C(=O)O)c(O)c3c2)CC1 | – | – | AC50 (Cytochrome P450 2C19): 22.4 µM (inconclusive)
14 | COC(=O)c1cc2c(ccn2-c2ccc(F)cc2)n1Cc1ccc(OC(C)=O)cc1 | > 60 µM (not active) | 2.84 µM (active) | –
15 | O=C(Nc1ccncc1)Nc1cc(Cl)ccc1Cl | > 30 µM (not active) | 0.469 µM (active) | –
16 | CCc1ccc(-n2nnnc2SCC(=O)Nc2ccc(NC(C)=O)cc2)cc1 | > 60 µM (not active) | 2.19 µM (active) | –
17 | Cc1cccc2cc(CN(Cc3cccnc3)C(=O)c3ccccc3F)c(Cl)nc12 | > 60 µM (not active) | 0.204 µM (active) | –
18 | Brc1ccc(CSc2nnc(-c3cnccn3)n2Cc2ccco2)cc1 | – | – | EC50 [3]: > 160 µM (inconclusive); EC50 [4]: 1.58 µM (active)
19 | COc1cccc(CN(C(=O)c2cc3ccccc3oc2=O)C2CC2)c1 | – | – | EC50 [3]: 18.6 µM (inconclusive); EC50 [4]: > 38 µM (not active)
20 | COc1ccc(OC)c(CN2CCN(C(=O)CCNC(=O)c3ccc(Br)cc3)CC2)c1 | > 60 µM (not active) | 0.563 µM (active) | –
21 | Cc1cc(C(=O)N[C@@H](c2ccccc2)[C@]2(C)C[C@H]2[C@@H](C)C(=O)Nc2ccc3ccccc3c2)n(C)n1 | – | – | AC50 (Cytochrome P450 1A2): 12.6 µM (inconclusive)
22 | Cc1ccc(COc2coc(CO)cc2=O)cc1 | – | – | AC50 (Cytochrome P450 1A2): 15.8 µM (inconclusive)
23 | Cc1cccc(C)c1NC(=S)NC(=O)CCc1ccccc1 | – | – | AC50 (Cytochrome P450 1A2): 22.4 µM (inconclusive); AC50 (Cytochrome P450 2C9): 25.1 µM (inconclusive)
24 | CC(=O)NC(NC(C)=O)c1ccc(Br)cc1 | – | – | AC50 (Cytochrome P450 1A2): 10 µM (inconclusive)
25 | CC(C)CN1CC[C@@]2(CCCN(C(=O)c3csnn3)C2)C1 | – | – | AC50 (Cytochrome P450 3A4): 20 µM (inconclusive)
26 | COc1ccc(-n2c(=O)c(-c3cccs3)nc3cnc(Nc4ccccc4)nc32)cc1 | – | – | AC50 (Cytochrome P450 1A2): 31.6 µM (inconclusive)
27 | Cc1cc(Cl)ccc1OC(C)C(=O)Nc1ccccc1N1CCOCC1 (centres undefined) | – | – | EC50 [5]: 6 µM (active)
28 | CCCCNC(=O)c1cn(C)c2ccc(S(=O)(=O)N3CCCC3)cc2c1=O | – | – | EC50 [3]: > 150 µM (inactive)
29 | CCCC[C@H]1C[C@@H]1[C@@H]1N(P(=O)(c2ccccc2)c2ccccc2)[C@](CO)(c2ccccc2)CC12CC2 | – | – | AC50 (Cytochrome P450 2C19): 7.94 µM (inconclusive)

— ChEMBL document CHEMBL1201862, “PubChem BioAssay data set” (2004)
